Assay results as given in patent publication US6348477B1, “Anti-herpesvirus compounds and methods for identifying, making and using same” (Boehringer Ingelheim(Canada) Ltd., priority 1995, dated 2002).

How the values were obtained:
HSV-1 helicase-primase = target: T1, HSV-1 helicase-primase (Human herpesvirus 1, UniProt P10189+P10236); assay: HSV-1 DNA-dependent ATPase assay (inhibition of HSV-1 helicase-primase); format: biochemical; details: Group 1 Table 1
T1 construct: made in house; host or cells: Sf21 insect cells triply infected with recombinant baculoviruses
Source text: A) HSV-1 DNA-Dependent ATP Assay (an in Vitro Assay Based on the Inhibition of HSV-1 Helicase-primase).
a) Preparation of enzyme: HSV-1 helicase-primase holoenzyme was produced in triply infected Sf21 cells using recombinant baculoviruses expressing the UL5, UL8 and UL52 helicase-primase subunits, as described by S. Dracheva et al., J. Biol. Chem. 1995, 270, 14148. The crude enzyme was purified by ammonium sulfate precipitation, Source 15Q® chromatography and Sephacryl® S-300 HR gel filtration (both purification systems can be obtained from Pharmacia Biotech Inc., Montreal, Quebec, Canada), see S. Dracheva et al., supra.
b) Assay: The DNA-dependent ATPase assay, described by J. J. Crute et al., Nucleic Acids Res. 1988, 16, 6585, was modified and used to evaluate the capability of the compounds of Group 1-formula 1 to inhibit HSV-1 helicase-primase activity. The reaction mixtures (80 μL each) contained 40 mM 4-(2-hydroxyethyl)-1-piperazineethanesulfonic acid (HEPES, pH 7.5), 10% (v/v) glycerol, 5.5 mM MgCl2, 1 mM DL-dithiothreitol (DTT), 50 μg/mL acetylated bovine serum albumin, 3.3% (v/v) DMSO, 4 mM ATP, 25 μM single-stranded M13 DNA hybridized to double-tailed 68-mer oligonucleotide and 3 μg/mL HSV-1 helicase-primase. After incubation for 20 min at 34°, formation of inorganic phosphate from hydrolysis of ATP was monitored spectrophotometrically at 650 nm using acidic ammonium molybdate/malachite green reagent, P. A. Lanzetta et al., Anal. Biochem. 1979, 100, 95. DNA-dependent ATPase activity was calculated from the net absorbance change in the presence and absence of inhibition.

HSV-1 strain F or KOS = assay: Inhibition of herpes simplex virus (HSV-1) replication in cell culture (BHK-21 cells, glycoprotein C ELISA); format: cell-based; details: Group 1 Table 1
Protocol: B) Inhibition of Herpes Simplex Virus (HSV-1) Replication in Cell Culture
Assay: BHK-21 cells clone 13 (ATCC CCL10) were incubated for two days in 850 cm^2 roller bottles (2×10^7 cells/bottle) with α-MEM medium (Gibco Canada Inc., Burlington, Ontario, Canada) supplemented with 8% (v/v) fetal bovine serum (FBS, Gibco Canada, Inc.). The cells were trypsinized and then 3,000 cells in 100 μL of fresh medium were transferred into each well of a 96-well microtiter plate. The cells were incubated at 37° for a period of 3 days to reach a density of 50,000 cells per well. The cells were washed twice with 100 μL of α-MEM supplemented with 2% heat inactivated FBS and incubated for 1-2 hours in 100 μL of the same medium.
Thereafter, the cells were infected with HSV-1 strain F or KOS (multiplicity of infection=0.05 PFU/cell) in 50 μL of α-MEM supplemented with 2% heat inactivated FBS. Following one hour of virus absorption at 37°, the medium was removed and the cells were washed with α-MEM supplemented with 2% heat inactivated FBS (2×100 μL). The cells were incubated with or without 100 μL of the appropriate concentration of test reagent in α-MEM medium supplemented with 2% heat inactivated FBS. After 24 hours of incubation at 37°, the extent of viral replication was determined by an ELISA assay; for instance, the following assay that detects the late glycoprotein C of HSV-1.
Cells were fixed in the microtiter plate with 100 μL of 0.063% glutaraldehyde in phosphate buffered saline for 30 min at room temperature. The microtiter plate was then washed once with casein blocking solution and blocked with 200 μL of the same solution for one hour at room temperature. Thereafter, 100 μL of mAb C11 recognizing the glycoprotein C of HSV-1 (see E. Trybala et al., Journal of General Virology, 1994, 75, 743) was added to each well for two hours at room temperature. The plate was washed three times with phosphate buffered saline containing 0.05% polyoxyethylene (20) sorbitan monooleate. The cells were incubated with 100 μL of sheep anti-mouse IgG horseradish peroxidase for one hour at room temperature in the dark.
The plate was washed three times with 200 μL of the above-noted phosphate buffer saline preparation, and then once with 0.1 M sodium citrate (pH 4.5). Thereafter, 100 μL of orthophenylenediamine dihydrochloride (OPD, Gibco, Canada Inc.) was added to each well. The plate was agitated on a microplate shaker for 30 min in the dark. Color development was monitored at 450 nm using a microplate spectrophotometer.
SAS was used to calculate % inhibition of viral replication and to generate EC50 values.

HCMV (strain AD169) [1] = assay: Inhibition of HCMV replication, ELISA assay (Hs-68 cells, p28); format: cell-based, human cytomegalovirus; details: Group 1 Table 1; read-out: ELISA CMV EC50
Protocol: (§1) C) Inhibition of Human Cytomegalovirus (HCMV) replication
(§2) The effect of compounds on the replication of HCMV has been measured by using an ELISA-based assay (ELISA) and a plaque reduction assay (PRA).
(§3) Hs-68 cells (ATCC # CRL 1635) were seeded in 96 well microtiter plates at 10,000 cells/well in 100 μL of DMEM medium (Gibco Canada Inc.) supplemented with 10% fetal bovine serum (FBS, Gibco Canada Inc.). The plates were incubated for 3 days at 37° to allow the cells to reach 80-90% confluency prior to the assay.
The medium was removed from wells by aspiration. The cells then were infected at a multiplicity of infection (MOI) of 0.01 PFU/cell with 50 μL of HCMV (strain AD169, ATCC VR-538) in DMEM medium supplemented with 5% heat inactivated FBS (assay medium). The virus was allowed to adsorb to cells for 2 h at 37°. Following viral adsorption, the medium was removed from the wells by aspiration. The cells were washed twice with 200 μL of assay medium to remove unabsorbed virus. The cells were then incubated with or without 100 μL of appropriate concentrations of test reagent in assay medium. After 8 days of incubation at 37°, the extent of viral replication was determined by an ELISA assay which detects the late structural protein p28 of HCMV.
Eight days after infection, the medium was aspirated from the wells. Non-specific binding sites were blocked by adding 200 μL of phosphate buffered saline containing 1% (w/v) bovine serum albumin (blocking buffer) to each well and incubating the plates for 30 min at room temperature. After removal of the blocking buffer by aspiration, the cells were fixed with 100 μL of cold ethanol-acetone solution (95:5) per well. The plates were placed at −20° for 30 min. The plates were washed 4 times with phosphate buffered saline containing 0.05% (v/v) polyoxyethylene sorbitan monolaurate (Tween 20®). Thereafter, 100 μL of mAb UL99 (Advanced Biotechnologies Inc., #13-130-100) recognizing HCMV protein p28 was added to each wells and plates were incubated for 2 h at room temperature. The plates were washed four times with 200 μL of the above-noted phosphate buffered saline/Tween-20® solution. The cells were then incubated with 100 μL of sheep anti-mouse IgGγ horseradish peroxidase conjugated for 2 h at room temperature. The plates were then washed four times with 200 μL of above-noted phosphate buffered saline/Tween-20®solution. Thereafter, 100 μL of ortho phenylenediamine dihydrochloride (OPD, Gibco Canada Inc.) solution was added to each well and the plates were agitated on a microplate shaker for 30 min in the dark. Color development was monitored at 450 nm using a microplate spectrophotometer.
The SAS program was used to calculate the % inhibition of viral replication and to generate EC50 values.
The EC50 values obtained according to this assay method for certain thiazolylphenyl derivatives of this invention are listed in the following tables under the heading ELISA CMV.

HCMV (strain AD169) [2] = assay: Inhibition of HCMV replication, plaque reduction assay (PRA, Hs-68 cells); format: cell-based, human cytomegalovirus; details: Group 1 Table 1; read-out: PRA CMV EC50
Protocol: as §1, §2
as §3, with “( ATCC” for “(ATCC”, “12-well” for “96 well microtiter”, “83,000” for “10,000”, “1 mL” for “100 μL”
The medium was removed from the cells by aspiration. The cells were then infected with approximately 50 PFU of HCMV (strain AD169, ATCC VR-538) in DMEM medium supplemented with 5% inactivated FBS (assay medium). The virus was allowed to adsorb to cells for 2 h at 37°. Following viral adsorption, the medium was removed from the wells by aspiration. The cells were then incubated with or without 1 mL of appropriate concentrations of test reagent in assay medium. After 4 days of incubation at 37°, the medium was exchanged with fresh medium containing test compound and 4 days later the cells were fixed with 1% aqueous formaldehyde and stained with a 2% crystal violet solution in 20% ethanol in water. Microscopic plaques were counted using a stereomicroscope. Drug effects were calculated as a percent reduction in the number of plaques in the presence of each drug concentration compared to the number observed in the absence of drug. Ganciclovir was used as a positive control in all experiments.
The EC50 values obtained according to this assay for certain thiazolyl derivatives of this invention are listed in the following tables under the heading PRA CMV.

[3] = system: HSV-1 acyclovir-resistant mutant strain PAA^r5; assay: Acyclovir-resistant HSV-1 PAAr5 cutaneous infection in immunodeficient nu/nu mice, oral; format: in vivo; details: 100 mg/kg/day oral, tid for 10 days (FIG. 1)
Protocol: (§4) Animals were cutaneously inoculated with 10^7 PFU of HSV-1 acyclovir resistant mutant viruses. The resulting cutaneous lesions were scored according to a subjective scoring system. The compound of Group 1 (Entry No. 29 in table 1) was administered orally (gavage) in an acidified vehicle (0.033 N aqueous HCl, tid for 10 days). Animals were similarly treated with acyclovir in 0.033 N aqueous HCl or only with the vehicle (0.033 N aqueous HCl). […] The dose-dependent effect of treatment with Entry No. 29 at 25 mg/kg/day (-♦-), 50 mg/kg/day (-▴-), 75 mg/kg/day (-□-), 100 mg/kg/day (-●-) or 125 mg/kg/day (-▪-), compared to treatment with vehicle alone (-∘-), is shown in FIG. 2. The ED50 of Entry No. 29 was about 60 mg/kg/day. Similar experiments were done using the HSV-1 acyclovir-resistant mutant strain dlsptk (FIGS. 3 and 4). […] The dose-dependent effect of treatment with Entry No. 29 at 25 mg/kg/day (-♦-), 50 mg/kg/day (▴-), 75 mg/kg/day (-□-), 100 mg/kg/day (-●-) or 125 mg/kg/day (-▪-), compared to treatment with vehicle alone (-∘-), is shown in FIG. 4. The acyclovir-resistant HSV-1 strains, PAA^r5 and dlsptk, have been described by P. A. Furman et al., J. Virol., 1981, 40, 936 and by D. M. Coen et al., Proc. Natl. Acad. Sci., 1989, 86, 4736, respectively.

[4] = system: HSV-1 acyclovir-resistant mutant strain dlsptk; assay: Acyclovir-resistant HSV-1 dlsptk cutaneous infection in immunodeficient nu/nu mice, oral; format: in vivo; details: 100 mg/kg/day oral, tid for 10 days (FIG. 3)
Protocol: as §4

T1 sequence (P10189 whole entry): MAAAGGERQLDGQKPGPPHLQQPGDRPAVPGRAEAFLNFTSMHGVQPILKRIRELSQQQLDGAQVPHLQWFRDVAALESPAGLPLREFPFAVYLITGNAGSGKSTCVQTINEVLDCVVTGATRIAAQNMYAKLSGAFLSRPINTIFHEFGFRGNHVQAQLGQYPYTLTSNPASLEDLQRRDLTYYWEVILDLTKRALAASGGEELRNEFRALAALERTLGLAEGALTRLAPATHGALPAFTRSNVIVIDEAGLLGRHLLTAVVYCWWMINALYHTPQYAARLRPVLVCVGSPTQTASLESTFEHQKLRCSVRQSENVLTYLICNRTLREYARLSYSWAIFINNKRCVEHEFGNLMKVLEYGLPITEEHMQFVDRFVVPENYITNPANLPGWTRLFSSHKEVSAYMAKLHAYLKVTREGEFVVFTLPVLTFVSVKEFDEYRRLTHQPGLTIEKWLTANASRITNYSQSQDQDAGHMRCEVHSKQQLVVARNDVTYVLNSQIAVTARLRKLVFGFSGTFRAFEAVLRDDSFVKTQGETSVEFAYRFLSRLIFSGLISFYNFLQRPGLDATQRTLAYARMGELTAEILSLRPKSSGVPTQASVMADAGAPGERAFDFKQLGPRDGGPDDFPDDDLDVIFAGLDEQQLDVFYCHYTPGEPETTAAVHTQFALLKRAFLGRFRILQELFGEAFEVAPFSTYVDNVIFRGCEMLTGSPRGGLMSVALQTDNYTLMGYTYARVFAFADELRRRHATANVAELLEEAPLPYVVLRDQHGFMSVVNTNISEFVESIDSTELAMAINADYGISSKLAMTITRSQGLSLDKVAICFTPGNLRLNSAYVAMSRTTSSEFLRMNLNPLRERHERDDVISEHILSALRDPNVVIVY
T1 sequence (P10192 whole entry, further chain): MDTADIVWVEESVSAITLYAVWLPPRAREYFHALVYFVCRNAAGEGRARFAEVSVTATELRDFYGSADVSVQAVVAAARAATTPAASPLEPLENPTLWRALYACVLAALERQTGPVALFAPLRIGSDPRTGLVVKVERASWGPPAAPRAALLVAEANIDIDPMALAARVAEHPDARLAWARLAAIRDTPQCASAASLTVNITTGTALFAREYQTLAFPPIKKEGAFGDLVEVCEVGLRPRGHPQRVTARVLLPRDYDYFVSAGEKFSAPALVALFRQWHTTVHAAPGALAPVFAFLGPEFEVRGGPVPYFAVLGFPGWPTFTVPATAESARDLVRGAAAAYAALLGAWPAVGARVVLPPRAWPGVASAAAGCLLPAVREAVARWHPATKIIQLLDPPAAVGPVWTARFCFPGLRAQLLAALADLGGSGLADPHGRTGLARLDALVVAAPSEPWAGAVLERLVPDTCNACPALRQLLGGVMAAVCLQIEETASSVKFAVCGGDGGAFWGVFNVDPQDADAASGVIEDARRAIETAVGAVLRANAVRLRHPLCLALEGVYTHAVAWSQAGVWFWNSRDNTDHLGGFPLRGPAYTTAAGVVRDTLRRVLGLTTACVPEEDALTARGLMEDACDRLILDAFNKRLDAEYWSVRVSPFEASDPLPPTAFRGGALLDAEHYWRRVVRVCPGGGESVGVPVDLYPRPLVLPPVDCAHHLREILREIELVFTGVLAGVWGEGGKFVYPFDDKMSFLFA
T1 sequence (P10236 whole entry): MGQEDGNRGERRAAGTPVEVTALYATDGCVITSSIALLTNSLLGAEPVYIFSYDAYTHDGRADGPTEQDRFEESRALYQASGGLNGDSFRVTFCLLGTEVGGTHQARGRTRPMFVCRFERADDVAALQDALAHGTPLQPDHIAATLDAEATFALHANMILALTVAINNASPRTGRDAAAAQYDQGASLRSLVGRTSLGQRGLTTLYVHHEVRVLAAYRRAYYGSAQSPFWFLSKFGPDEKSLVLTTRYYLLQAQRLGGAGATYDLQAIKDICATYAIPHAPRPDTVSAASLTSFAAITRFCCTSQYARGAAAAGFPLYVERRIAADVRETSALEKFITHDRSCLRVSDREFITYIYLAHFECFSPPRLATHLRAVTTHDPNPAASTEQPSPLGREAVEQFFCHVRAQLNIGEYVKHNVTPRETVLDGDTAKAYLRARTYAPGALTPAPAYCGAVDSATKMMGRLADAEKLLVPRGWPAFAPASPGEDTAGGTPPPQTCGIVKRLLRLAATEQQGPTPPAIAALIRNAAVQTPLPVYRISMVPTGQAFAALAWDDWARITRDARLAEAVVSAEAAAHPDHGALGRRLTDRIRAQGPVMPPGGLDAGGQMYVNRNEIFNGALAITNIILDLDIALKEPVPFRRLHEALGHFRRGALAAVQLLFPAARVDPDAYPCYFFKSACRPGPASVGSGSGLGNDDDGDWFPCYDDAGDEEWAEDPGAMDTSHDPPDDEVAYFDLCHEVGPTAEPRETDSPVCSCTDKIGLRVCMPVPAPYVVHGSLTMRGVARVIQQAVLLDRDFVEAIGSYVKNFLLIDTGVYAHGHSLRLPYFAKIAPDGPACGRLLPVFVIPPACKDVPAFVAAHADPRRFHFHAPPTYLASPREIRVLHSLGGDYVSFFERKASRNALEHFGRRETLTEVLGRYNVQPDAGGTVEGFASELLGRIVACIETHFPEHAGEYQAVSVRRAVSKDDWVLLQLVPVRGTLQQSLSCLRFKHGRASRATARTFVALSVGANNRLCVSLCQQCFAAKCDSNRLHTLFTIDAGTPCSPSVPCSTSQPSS

Compound	IC50 (HSV-1 helicase-primase)	EC50 (HSV-1 strain F or KOS)	EC50 (HCMV (strain AD169) [1])	EC50 (HCMV (strain AD169) [2])	effect on cutaneous lesions [3]	effect on cutaneous lesions [4]
CC(c1ccccc1)N(CC(=O)Nc1ccc(-c2csc(N)n2)cc1)C(=O)C1CCCCC1 (centres unmarked) [Example 52]	87 nM	13 nM	1300 nM	6000 nM	–	–
Nc1nc(-c2ccc(NC(=O)CN(CC3CCCCC3)C(=O)c3cccnc3)cc2)cs1 [Example 64]	2500 nM	1700 nM	750 nM	20000 nM	–	–
CC(c1ccccc1)N(CC(=O)Nc1ccc(-c2csc(N)n2)cc1)C(=O)OC(C)(C)C (centres unmarked) [Example 89]	98 nM	36 nM	900 nM	38000 nM	–	–
Nc1nc2c(ncn2COCCO)c(=O)[nH]1 [acyclovir]	–	–	–	–	no effect	no effect
